Experimental data taken from the supplement of paper PMC10627819.

Experiments:
S. aureus DSM 20231 = assay: Bliss interaction score (quartile over a dose matrix) (fitness difference); higher = more antagonism (negative = synergy)
How it was run: (§1)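 The Bliss score takes observed fitness and subtracts the expected fitness, calculated as a product of single-drug fitness values. Those single-drug values were inferred from the combination data. Fitness is OD595 at entry into stationary phase divided by the plate's robust no-drug mean, capped at 1, and the score is summarised by quartiles across technical, biological and donor/recipient replicates.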

S. pneumoniae D39V [1] = assay: as above
How it was run: as §1

S. aureus Newman [2] = assay: as above
How it was run: as §1

B. subtilis 168 [3] = assay: as above
How it was run: as §1

S. aureus Newman [4] = assay: fitness (endpoint OD595 vs no drug) (fraction); higher = more growth; settings: main component drawn
How it was run: (§2)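 Plates with 384 wells were inoculated at OD595 0.01 using 30 µl of TSB, LB Lennox or CY, or 55 µl for S. pneumoniae. Incubation was at 37 °C, with OD595 measured every 30 min for 14 h. Fitness is the stationary-phase transition optical density over the robust mean of no-drug control wells, after first-reading background subtraction; it is capped at 1.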

S. pneumoniae D39V [5] = assay: as above
How it was run: as §2

B. subtilis 168 [6] = assay: as above
How it was run: as §2
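Wherever Bliss interaction score (quartile over a dose matrix) is given: first quartile when negative (synergy) and third quartile when positive (antagonism).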

CC1=C(C(=O)O)N2C(=O)[C@@H](NC(=O)[C@H](N)c3ccccc3)[C@H]2SC1 [Cephalexin] + CCCCCCCCCC(=O)N[C@@H]1[C@H]([C@@H]([C@H](O[C@H]1OC2=C3C=C4C=C2OC5=C(C=C(C=C5)[C@H]([C@H]6C(=O)N[C@@H](C7=C(C(=CC(=C7)O)OC8[C@H]([C@H]([C@@H]([C@H](O8)CO)O)O)O)C9=C(C=CC(=C9)[C@H](C(=O)N6)NC(=O)[C@@H]4NC(=O)[C@@H]1C2=CC(=CC(=C2)OC2=C(C=CC(=C2)[C@H](C(=O)N[C@H](CC2=CC(=C(O3)C=C2)Cl)C(=O)N1)N)O)O)O)C(=O)O)O[C@H]1[C@@H]([C@H]([C@@H]([C@H](O1)CO)O)O)NC(=O)C)Cl)CO)O)O [Teicoplanin]
main component drawn
Settings	Bliss interaction score
B. subtilis 168 [3]	0.0688
S. aureus DSM 20231	0.0334
S. aureus Newman [2]	0.0429
S. pneumoniae D39V [1]	0.0339

fitness, S. aureus Newman [4]
Settings	first compound 0.25 µg/mL	first compound 0.5 µg/mL	first compound 1 µg/mL
partner 0.1562 µg/mL	≥ 1	≥ 1	≥ 1
partner 0.3125 µg/mL	≥ 1	≥ 1	≥ 1
partner 0.625 µg/mL	≥ 1	≥ 1	≥ 1

fitness, S. aureus Newman [4], one replicate
Settings	first compound 0.5 µg/mL	first compound 1 µg/mL	first compound 2 µg/mL
partner 0.62 µg/mL	0.827	0.855	0.847
partner 1.24 µg/mL	0.77	0.796	0.739
partner 2.48 µg/mL	0.565	0.498	0.587

CC1=C(C(=O)O)N2C(=O)[C@@H](NC(=O)[C@H](N)c3ccccc3)[C@H]2SC1 [Cephalexin] + CCC[C@@H]1C[C@@H](C(=O)N[C@@H]([C@H]2O[C@H](SC)[C@H](O)[C@@H](O)[C@H]2O)[C@@H](C)O)N(C)C1 [Lincomycin]
Settings	Bliss interaction score
B. subtilis 168 [3]	-0.0209
S. aureus DSM 20231	0.101
S. aureus Newman [2]	0.0797
S. pneumoniae D39V [1]	0.159

fitness, one replicate
Settings	partner 0.1 µg/mL	partner 0.2 µg/mL	partner 0.4 µg/mL	partner 0.8 µg/mL
B. subtilis 168 [6], first compound 1 µg/mL	≥ 1	≥ 1	≥ 1	–
S. pneumoniae D39V [5], first compound 0.125 µg/mL	–	0.722	0.663	0.206
S. pneumoniae D39V [5], first compound 0.25 µg/mL	–	0.759	0.643	0.304
S. pneumoniae D39V [5], first compound 0.5 µg/mL	–	0.786	0.702	0.288

Settings	fitness
B. subtilis 168 [6], first compound 0.125 µg/mL, partner 0.1 µg/mL	0.901
B. subtilis 168 [6], first compound 0.125 µg/mL, partner 0.2 µg/mL	0.876
B. subtilis 168 [6], first compound 0.125 µg/mL, partner 0.4 µg/mL	0.852
B. subtilis 168 [6], first compound 0.25 µg/mL, partner 0.1 µg/mL	0.941
B. subtilis 168 [6], first compound 0.25 µg/mL, partner 0.2 µg/mL	0.937
B. subtilis 168 [6], first compound 0.25 µg/mL, partner 0.4 µg/mL	0.913
B. subtilis 168 [6], first compound 0.5 µg/mL, partner 0.1 µg/mL	0.939
B. subtilis 168 [6], first compound 0.5 µg/mL, partner 0.2 µg/mL	0.901
B. subtilis 168 [6], first compound 0.5 µg/mL, partner 0.4 µg/mL	0.852
S. pneumoniae D39V [5], first compound 1 µg/mL, partner 0.215 µg/mL	0.832
S. pneumoniae D39V [5], first compound 1 µg/mL, partner 0.43 µg/mL	0.716
S. pneumoniae D39V [5], first compound 1 µg/mL, partner 0.86 µg/mL	0.403
S. pneumoniae D39V [5], first compound 2 µg/mL, partner 0.43 µg/mL	0.373
S. pneumoniae D39V [5], first compound 2 µg/mL, partner 0.86 µg/mL	0.176
S. pneumoniae D39V [5], first compound 4 µg/mL, partner 0.215 µg/mL	0.0258
S. pneumoniae D39V [5], first compound 4 µg/mL, partner 0.43 µg/mL	0.0283
S. pneumoniae D39V [5], first compound 4 µg/mL, partner 0.86 µg/mL	0.0358

CC1=C(C(=O)O)N2C(=O)[C@@H](NC(=O)[C@H](N)c3ccccc3)[C@H]2SC1 [Cephalexin] + CN(C)C(=O)C(CCN1CCC(O)(c2ccc(Cl)cc2)CC1)(c1ccccc1)c1ccccc1 [Loperamide]
Settings	Bliss interaction score
B. subtilis 168 [3]	-0.0893
S. aureus DSM 20231	0.116
S. aureus Newman [2]	0.0814
S. pneumoniae D39V [1]	-0.129

fitness, S. pneumoniae D39V [5], one replicate
Settings	first compound 0.125 µg/mL	first compound 0.25 µg/mL	first compound 0.5 µg/mL	first compound 1 µg/mL	first compound 2 µg/mL	first compound 4 µg/mL
partner 20 µg/mL	≥ 1	≥ 1	≥ 1	–	–	–
partner 40 µg/mL	≥ 1	0.995	0.99	–	–	–
partner 68.57 µg/mL	–	–	–	0.53	0.15	0.0031
partner 80 µg/mL	0.753	0.784	0.612	–	–	–

Settings	fitness
B. subtilis 168 [6], first compound 0.125 µg/mL, partner 25 µg/mL	0.819
B. subtilis 168 [6], first compound 0.125 µg/mL, partner 50 µg/mL	0.0465
B. subtilis 168 [6], first compound 0.125 µg/mL, partner 100 µg/mL	0.0315
B. subtilis 168 [6], first compound 0.25 µg/mL, partner 25 µg/mL	0.803
B. subtilis 168 [6], first compound 0.25 µg/mL, partner 50 µg/mL	0.039
B. subtilis 168 [6], first compound 0.25 µg/mL, partner 100 µg/mL	0.025
B. subtilis 168 [6], first compound 0.5 µg/mL, partner 25 µg/mL	0.712
B. subtilis 168 [6], first compound 0.5 µg/mL, partner 50 µg/mL	0.0372
B. subtilis 168 [6], first compound 0.5 µg/mL, partner 100 µg/mL	0.0277
S. pneumoniae D39V [5], first compound 2 µg/mL, partner 34.28 µg/mL	0.165
S. pneumoniae D39V [5], first compound 4 µg/mL, partner 17.14 µg/mL	0.0474
S. pneumoniae D39V [5], first compound 4 µg/mL, partner 34.28 µg/mL	0.0181

CC1=C(C(=O)O)N2C(=O)[C@@H](NC(=O)[C@H](N)c3ccccc3)[C@H]2SC1 [Cephalexin] + COc1cc(Cc2cnc(N)nc2N)cc(OC)c1OC [Trimethoprim]
Settings	Bliss interaction score
B. subtilis 168 [3]	0.113
S. aureus DSM 20231	-0.058
S. aureus Newman [2]	-0.0582
S. pneumoniae D39V [1]	0.0759

fitness, B. subtilis 168 [6]
Settings	first compound 0.125 µg/mL	first compound 0.25 µg/mL	first compound 0.5 µg/mL	first compound 1 µg/mL
partner 0.25 µg/mL	–	0.685	–	0.699
partner 0.5 µg/mL	0.445	0.465	0.517	0.528

fitness, B. subtilis 168 [6], one replicate
Settings	partner 0.1 µg/mL	partner 0.125 µg/mL	partner 0.2 µg/mL	partner 0.4 µg/mL	partner 1 µg/mL	partner 2 µg/mL
first compound 0.125 µg/mL	–	–	–	–	0.48	0.501
first compound 0.25 µg/mL	0.915	0.749	0.791	0.533	0.402	0.418
first compound 0.5 µg/mL	0.884	0.758	0.809	0.565	0.372	0.509
first compound 1 µg/mL	0.879	0.759	0.86	0.572	–	–
